This is an account of results in patent US5378706A, “Fused-thiazole derivatives active on the cholinergic system, and pharmaceutical compositions containing same” (Sanofi, priority 1987, dated 1995).

Where two headings read alike, the source gives them in different places. Bounds are passed on as bounds.

Data set [1] deals with T1, M1 -type muscarinic cholinergic receptor (Rattus norvegicus, UniProt P08482).
T1 sequence (P08482 1-460): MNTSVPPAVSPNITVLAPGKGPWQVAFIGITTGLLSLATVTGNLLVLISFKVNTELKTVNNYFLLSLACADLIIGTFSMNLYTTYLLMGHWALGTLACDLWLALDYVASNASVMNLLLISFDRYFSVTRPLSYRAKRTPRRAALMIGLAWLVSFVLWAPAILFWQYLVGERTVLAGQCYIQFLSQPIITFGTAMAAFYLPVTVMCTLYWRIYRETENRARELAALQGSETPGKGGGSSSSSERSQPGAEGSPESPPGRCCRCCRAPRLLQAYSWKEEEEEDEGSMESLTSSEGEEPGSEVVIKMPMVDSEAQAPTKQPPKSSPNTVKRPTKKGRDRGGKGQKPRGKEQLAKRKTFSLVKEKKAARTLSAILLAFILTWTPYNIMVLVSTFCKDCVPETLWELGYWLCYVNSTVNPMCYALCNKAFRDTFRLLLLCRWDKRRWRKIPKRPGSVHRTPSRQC
As to the kind of experiment: biochemical. It is filed as binding. The settings on record: for IC50: read-out: IC50 3H-PZ (M1); for ratio R of the IC50 values for the M1 and M2 receptors: selectivity, values correspond to IC50 M2 / IC50 M1.
Method: The interaction of the molecules with the M1 -type muscarinic receptors was studied by in vitro measurement, on a rat hippocampus homogenate, of the displacement of tritiated pirenzepine from its specific binding sites. Aliquots (10 μl) of a 5% (w/v) rat hippocampus homogenate in an Na2 HPO4 buffer (50 mM, pH 7.40) are incubated for 2 hours at 4° C. in the presence of ^3 H-PZ (76 Ci/mmol; final concentration 1 nM) and increasing concentrations of the test product. The final volume is 2 ml. The reaction is stopped by centrifugation for 10 minutes at 50,000×g. After decantation and washing of the residues, the bound radioactivity is counted by liquid scintillation. The non-specific binding is determined in the presence of 10 μM atropine sulfate.

Data set [2] has as its target T2, M2 -type muscarinic cholinergic receptor (Cavia porcellus, UniProt H0VRN8).
T2 construct: on a smooth guinea-pig ileum muscle homogenate; from tissue; host or cells: guinea-pig ileum smooth muscle homogenate
T2 sequence (H0VRN8 1-466): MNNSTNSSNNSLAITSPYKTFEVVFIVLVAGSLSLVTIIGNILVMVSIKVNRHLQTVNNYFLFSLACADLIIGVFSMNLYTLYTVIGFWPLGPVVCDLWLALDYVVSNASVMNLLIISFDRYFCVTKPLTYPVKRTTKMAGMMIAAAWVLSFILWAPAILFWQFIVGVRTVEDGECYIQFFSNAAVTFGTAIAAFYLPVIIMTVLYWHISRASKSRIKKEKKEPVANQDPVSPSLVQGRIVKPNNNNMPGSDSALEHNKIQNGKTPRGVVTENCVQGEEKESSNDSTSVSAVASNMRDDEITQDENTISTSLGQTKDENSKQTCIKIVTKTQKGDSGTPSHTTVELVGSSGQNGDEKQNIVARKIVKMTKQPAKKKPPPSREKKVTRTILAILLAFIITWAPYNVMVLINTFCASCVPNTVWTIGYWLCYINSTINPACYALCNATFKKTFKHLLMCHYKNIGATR
The data set can be described thus: Affinity for the M2-type muscarinic cholinergic receptor, displacement of tritiated N-methylscopolamine (3H-NMS) on smooth guinea-pig ileum muscle homogenate. The settings on record: guinea-pig ileum smooth muscle homogenate, 3H-NMS 0.3 nM, 20 minutes at 30° C., pH 7.5; read-out: IC50 3H-NMS (M2). It is filed as binding. How it is done: The M1 -type receptors are concentrated in certain regions of the brain, such as the hippocampus, the cerebral cortex and the striatum, and also in the sympathetic ganglia. These binding sites can be selectively labeled with tritiated pirenzepine (^3 H-PZ). The M2 -type receptors predominate in the heart and the ileum and can be labeled with tritiated N-methyl-scopolamine (^3 H-NMS). The selectivity of the products of the invention with respect to the M1 and M2 sites was determined by studying their in vitro interaction with ^3 H-PZ and ^3 H-NMS firmly bound with a high affinity to rat hippocampus membranes and smooth guinea-pig ileum muscle, respectively.
The interaction with the M2 -type muscarinic receptors was studied by in vitro measurement, on a smooth guinea-pig ileum muscle homogenate, of the displacement of tritiated N-methylscopolamine from its specific binding sites. […] The final volume is 1 ml. The reaction is stopped by centrifugation for 5 minutes at 15,000×g. The non-specific binding is determined in the presence of 10 mM atropine sulfate.
The IC50 for ^3 H-PZ displacement represents the affinity for the M1 receptor; the IC50 for ^3 H-NMS displacement represents the affinity for the M2 receptor.

Data set [3] deals with M1 central muscarinic cholinergic receptors. The data set can be described thus: Antagonism of rotations induced by intrastriatal injection of pirenzepine in mice. It is filed as in vivo, mice (Swiss, CD 1). The settings on record: for Pirenzepine antagonism ED50 i.p.: 15 minutes before intrastriatal pirenzepine 1 μg; for Pirenzepine antagonism ED50 p.o.: 30 minutes before intrastriatal pirenzepine 1 μg. How it is done: Pirenzepine (PZ) is a specific antagonist of the M1 central muscarinic cholinergic receptors. The intrastriatal injection of PZ into mice induces rotatory behavoir. The antagonism of this behavoir by the products according to the invention was studied.
The products according to the invention are administered either intraperitoneally (i.p.) or orally (p.o.) after solubilization in distilled water or suspension in a 5% solution of gum arabic. The control animals receive the pure solvent under the same conditions.
The animals used are female mice (Swiss, CD 1, Charles River, France) with a body weight of between 25 and 30 grams.
The pirenzepine is dissolved in a phosphate buffer and the pH of the solution is 6.
The test products or their solvents are administered in a volume of 0.4 ml per 20 g of body weight, either by i.p. injection or orally via an esophageal tube.
The number of contralateral rotations (rotations in the opposite direction to the side injected) was counted for three 2-minute periods after injection of the pirenzepine: 2nd to 4th, 8th to 10th and 13th to 15th minutes. Each treatment consists of 3 to 4 doses and 10 animals per dose. The total number of rotations and the percentage antagonism with respect to the control group are calculated for each treatment.

Data set [4] is described as follows: Acute toxicity, 24 hours mortality after i.p. administration to mice. The settings on record: mouse, in vivo, ip, female mice, 20 g. How it is done:
Finally, the acute toxicity was determined for various products according to the invention. The products were administered intraperitoneally in increasing doses to groups of 10 female mice (Swiss, CD 1, Charles River, France) with a body weight of 20 g.

The mark [5] stands for this setting: rat hippocampus homogenate, 3H-PZ 1 nM, 2 hours at 4° C., pH 7.40.

For orientation: IC50 means the midpoint of a concentration-inhibition curve. For orientation: LD50 means the dose at which mortality reaches 50%. Read a low LD50 as a more toxic substance.

As for `CCN(CC)CCCNc1nc(C)c(-c2ccccc2)s1` [SR 44373 A], in data set [1] (setting [5]), the IC50 turned out to be 0.7 µM. Further, the “ratio R of the IC50 values for the M1 and M2 receptors” value (“ratio R of the IC50 values” for short) in data set [1] is listed as 21. The IC50 in data set [2] amounted to 15 µM. Further, in data set [3], the “Pirenzepine antagonism ED50 i.p.” value is 0.3 mg/kg and the “Pirenzepine antagonism ED50 p.o.” value amounted to 1 mg/kg. The compound further yielded a median lethal dose (LD50) at 24 h in data set [4] of 75 mg/kg.
With `c1ccc(-c2csc(NCCCN3CCOCC3)n2)cc1` [SR 44284 A], the IC50 in data set [1] (setting [5]) was determined as 8 µM; in data set [2], 40 µM. Also, the “ratio R of the IC50 values” value in data set [1] was found to be 5. Moreover, the “Pirenzepine antagonism ED50 i.p.” value in data set [3] is on record as 8 mg/kg. This compound also registered a 50% lethal dose (LD50) at 24 h in data set [4] of 450 mg/kg.
Take `CCN(CC)CCNc1nc(-c2ccccc2)cs1` [SR 44286 A]: in data set [1] (setting [5]), the half-inhibitory concentration (IC50) was 6 µM. For the same compound, the “ratio R of the IC50 values” value in data set [1] was found to be 16. Besides, in data set [2], the IC50 amounted to 100 µM. Also, in data set [3], the “Pirenzepine antagonism ED50 i.p.” value was 3 mg/kg and the “Pirenzepine antagonism ED50 p.o.” value stood at 10 mg/kg. This compound also returned an LD50 at 24 h in data set [4] of 200 mg/kg.
For `CN(C)CCCNc1nc(-c2ccccc2)cs1` [SR 44345 A], the IC50 in data set [1] (setting [5]) is 1 µM. Moreover, in data set [1], the “ratio R of the IC50 values” value is given as 70. In addition, in data set [2], the 50% inhibitory concentration (IC50) turned out to be 70 µM. In data set [3], the “Pirenzepine antagonism ED50 i.p.” value was determined as 0.5 mg/kg and the “Pirenzepine antagonism ED50 p.o.” value is 1 mg/kg. This compound also returned a 50% lethal dose (LD50) at 24 h in data set [4] of 200 mg/kg.
For the compound `c1ccc(-c2csc(NCCN3CCOCC3)n2)cc1` [SR 44244 A], in data set [3], the “Pirenzepine antagonism ED50 i.p.” value is reported as 8 mg/kg and the “Pirenzepine antagonism ED50 p.o.” value is on record as 20 mg/kg. Also, the median lethal dose (LD50) at 24 h in data set [4] was 250 mg/kg.
Consider `CCN(CC)CCCNc1nc(-c2ccccc2)cs1` [SR 44374 A], for which the results for the IC50 in data set [1] (setting [5]) and in data set [2] were 0.4 µM and 8 µM, respectively. For the same compound, in data set [1], the “ratio R of the IC50 values” value came out at 20. Besides, in data set [3], the “Pirenzepine antagonism ED50 i.p.” value was 3 mg/kg. This compound yielded a 50% lethal dose (LD50) at 24 h in data set [4] of 150 mg/kg.
In the case of `CCN(CC)CCCNc1nc(-c2c(C)cc(C)cc2C)cs1` [SR 44347 A], the IC50 in data set [1] (setting [5]) came out at 0.35 µM; in data set [2], 13 µM. The “ratio R of the IC50 values” value in data set [1] is 37. Besides, the “Pirenzepine antagonism ED50 i.p.” value in data set [3] worked out at 0.03 mg/kg. Further, in data set [3], the “Pirenzepine antagonism ED50 p.o.” value worked out at 0.20 mg/kg. Also, in data set [4], the LD50 at 24 h is 60 mg/kg.
As for `Cl.Cl.c1ccc2c(c1)CCc1sc(NCCN3CCOCC3)nc1-2` [SR 44273 A, 2-(2-Morpholinoethylamino)-4,5-dihydronaphtho[1,2-d]thiazole dihydrochloride], the median lethal dose (LD50) at 24 h in data set [4] is > 100 mg/kg.
Regarding `CCN(CC)CCNc1nc(-c2c(C)cc(C)cc2C)cs1` [SR 44372 A], the half-inhibitory concentration (IC50) in data set [1] (setting [5]) was 0.12 µM. Further, in data set [1], the “ratio R of the IC50 values” value is reported as 41. Moreover, in data set [2], the IC50 came to 5 µM. Also, in data set [3], the “Pirenzepine antagonism ED50 i.p.” value was determined as 1 mg/kg and the “Pirenzepine antagonism ED50 p.o.” value is reported as 3 mg/kg. In addition, the LD50 at 24 h in data set [4] came out at 75 mg/kg.
For the compound `Cc1cc(C)c(-c2csc(NCCCN3CCN(C)CC3)n2)c(C)c1` [SR 44915 A], the concentration for half-maximal inhibition (IC50) in data set [1] (setting [5]) came out at 0.4 µM; in data set [2] it was 40 µM. In addition, in data set [1], the “ratio R of the IC50 values” value worked out at 100. The “Pirenzepine antagonism ED50 p.o.” value in data set [3] is given as 3 mg/kg.
On to `Cc1cc(C)c(-c2csc(NCCc3ccncc3)n2)c(C)c1` [SR 44856 A], for which the figures for the IC50 in data set [1] (setting [5]) and in data set [2] were 0.3 µM and > 100 µM, respectively. Moreover, the “ratio R of the IC50 values” value in data set [1] is reported as > 300. The “Pirenzepine antagonism ED50 p.o.” value in data set [3] was 3 mg/kg.
Turning to `CNCCCNc1nc(-c2c(C)cc(C)cc2C)cs1` [SR 45030 A], the figures for the IC50 in data set [1] (setting [5]) and in data set [2] were 1.6 µM and 80 µM, respectively. The “ratio R of the IC50 values” value in data set [1] was 50. In addition, in data set [3], the “Pirenzepine antagonism ED50 p.o.” value came out at 1 mg/kg.
Consider `CN(C)CCCNc1nc(-c2ccc(F)cc2)cs1` [SR 44494 A], for which the half-inhibitory concentration (IC50) in data set [1] (setting [5]) turned out to be 0.8 µM; in data set [2], 80 µM. In data set [1], the “ratio R of the IC50 values” value is 100. Further, the “Pirenzepine antagonism ED50 p.o.” value in data set [3] stood at 2 mg/kg.
Consider `CCN(CC)CCNc1nc2c(s1)CCc1ccccc1-2` [SR 44393 A], for which the figures for the half-maximal inhibitory concentration (IC50) in data set [1] (setting [5]) and in data set [2] were 2.7 µM and 42 µM, respectively. The “ratio R of the IC50 values” value in data set [1] was 15. Besides, in data set [3], the “Pirenzepine antagonism ED50 i.p.” value is reported as 3 mg/kg.
Consider `CCN(CC)CCNc1nc2c(s1)CCCc1ccc([N+](=O)[O-])cc1-2.Cl.Cl` [SR 44411 A, 2-[(2-Diethylaminoethyl)amino]-9-nitro-5,6-dihydro-4H-benzo[6,7]cyclohepta[1,2-d]thi azole dihydrochloride], for which, in data set [1], the IC50 was 0.9 µM; the “ratio R of the IC50 values” value turned out to be 7. Besides, the concentration for half-maximal inhibition (IC50) in data set [2] came to 6.7 µM. Besides, the “Pirenzepine antagonism ED50 i.p.” value in data set [3] came out at 15 mg/kg.
With `Cc1cc(C)c(-c2csc(NCCCN3CCCC3)n2)c(C)c1` [SR 44964 A], the half-maximal inhibitory concentration (IC50) in data set [1] (setting [5]) was 0.9 µM; in data set [2], 28 µM. Besides, the “ratio R of the IC50 values” value in data set [1] is listed as 31. For the same compound, the “Pirenzepine antagonism ED50 p.o.” value in data set [3] is recorded as 3 mg/kg.
